In this assay the target is T1, recombinant human GST-Syk (Homo sapiens, UniProt P43405).
T1 construct: purchased Carna Biosciences 08-176
The assay is described as follows: Homogeneous Time-Resolved Fluorescence (HTRF) assay for the recombinant human Syk enzyme. Type of assay: biochemical. Conditions: recombinant human GST-Syk 5 pM, ATP 25 μM, 10-dose titration 10 μM to 0.508 nM; read-out: rhSYK Activity IC50. In outline:
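GST-hSyk fusion protein phosphorylated a peptide for 45 min at room temperature. The reaction was quenched with 2 nM Eu-anti-phosphotyrosine antibody and 70 nM SA-APC in 15 mM Tris pH 7.5, 40 mM EDTA, 0.01% Tween 20. The HTRF signal was read after 30 min.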
What is called IC50 is the point on the concentration scale where inhibition reaches its midpoint. For `Cc1cc(Nc2nccc(C(F)F)n2)cc(-c2cn(CC3OC(=O)NC3C)nn2)c1` (single isomer, unassigned) [Example 7.41, 5-{[4-(3-{[4-(difluoromethyl)pyrimidin-2-yl]amino}-5-methylphenyl)-1H-1,2,3-triazol-1-yl]methyl}-4-methyl-1,3-oxazolidin-2-one], the IC50 was 0.0128 µM.
For the compound `Cc1cc(Nc2cc(C(F)(F)F)ccn2)nc(-c2nnc[nH]2)c1` [Example 16.2, 4-methyl-6-(4H-1,2,4-triazol-3-yl)-N-[4-(trifluoromethyl)pyridin-2-yl]pyridin-2-amine], the half-inhibitory concentration (IC50) stood at 0.328 µM.
The value for `Cc1cc(Nc2nccc(C)n2)cc(-c2cn(CC(C)(O)C(C)(C)O)nn2)c1` (stereo not shown) [Example 21.35, 2,3-dimethyl-1-(4-{3-methyl-5-[(4-methylpyrimidin-2-yl)amino]phenyl}-1H-1,2,3-triazol-1-yl)butane-2,3-diol] was 0.0839 µM.
The value for `Cc1cc(Nc2ncc(F)c(C(F)F)n2)cc(-c2cn(CC(C)(O)C(C)(C)O)nn2)c1` (stereo not shown) [Example 21.15, 1-[4-(3-{[4-(difluoromethyl)-5-fluoropyrimidin-2-yl]amino}-5-methylphenyl)-1H-1,2,3-triazol-1-yl]-2,3-dimethylbutane-2,3-diol] was 0.0475 µM; that for `Cc1cc(Nc2cc(C(F)(F)F)ccn2)nc(-c2cn(C(C)C(=O)NCCc3c[nH]c4ccccc34)nn2)c1` (stereo not shown) [Example 1.29] was 0.124 µM.
In the case of `Cc1cc(Nc2cc(C(F)F)ccn2)nc(-c2cn(CC(C)(O)CO)nn2)c1` (stereo not shown) [Example 21.40, 3-(4-(6-((4-(difluoromethyl)pyridin-2-yl)amino)-4-methylpyridin-2-yl)-1H-1,2,3-triazol-1-yl)-2-methylpropane-1,2-diol], the IC50 is 0.0059 µM.
As for `Cc1cc(Nc2cc(C(F)(F)F)ccn2)nc(-c2cn(CC(O)C(F)(F)F)nn2)c1` (racemic) [Example 5.83, 1,1,1-trifluoro-3-[4-(4-methyl-6-{[4-(trifluoromethyl)pyridin-2-yl]amino}pyridin-2-yl)-1H-1,2,3-triazol-1-yl]propan-2-ol], the figure is 0.0044 µM; as for `Cc1cc(Nc2cc(C(C)(C)C)ccn2)nc(-c2cn(C(C)c3ccc(C(=O)O)cc3)nn2)c1` (stereo not shown) [Example 2.12, 4-[1-(4-{6-[(4-tert-butylpyridin-2-yl)amino]-4-methylpyridin-2-yl}-1H-1,2,3-triazol-1-yl)ethyl]benzoic acid], 0.0055 µM; as for `COC(=O)[C@@H](C)Cn1cc(-c2cc(C)cc(Nc3cc(C(F)(F)F)ccn3)n2)nn1` [Example 5.86, methyl (2S)-2-methyl-3-[4-(4-methyl-6-{[4-(trifluoromethyl)pyridin-2-yl]amino}pyridin-2-yl)-1H-1,2,3-triazol-1-yl]propanoate], 0.0664 µM.
The value for `Cc1cc(Nc2nccc(C(F)F)n2)cc(-c2cn(CC3(O)CNC(=O)C3)nn2)c1` (single isomer, unassigned) [Example 31.2, 4-((4-(3-((4-(Difluoromethyl)pyrimidin-2-yl)amino)-5-methylphenyl)-1H-1,2,3-triazol-1-yl)methyl)-4-hydroxypyrrolidin-2-one] was 0.0047 µM.
The value for `Cc1cc(Nc2cc(C(F)(F)F)ccn2)nc(-c2cn(C3CCNC(=O)CC3)nn2)c1` (racemic) [Example 11.2, 5-[4-(4-methyl-6-{[4-(trifluoromethyl)pyridin-2-yl]amino}pyridin-2-yl)-1H-1,2,3-triazol-1-yl]azepan-2-one] was 0.0238 µM; that for `Cc1cc(Nc2cc(C(F)(F)F)ccn2)nc(-c2cn(C3CCC(C(N)=O)C(C)(C)C3)nn2)c1` (single isomer, unassigned) [Example 1.8, 2,2-dimethyl-4-[4-(4-methyl-6-{[4-(trifluoromethyl)pyridin-2-yl]amino}pyridin-2-yl)-1H-1,2,3-triazol-1-yl]cyclohexanecarboxamide] was 0.0058 µM.
`Cc1cc(Nc2nccc(C(F)(F)F)n2)cc(-c2cn(C[C@@]3(O)CC[C@H](C(=O)O)C(C)(C)C3)nn2)c1` (racemic) [Example 4.1, Racemic syn-4-Hydroxy-2,2-dimethyl-4-((4-(3-methyl-5-((4-(trifluoromethyl)pyrimidin-2-yl)amino)phenyl)-1H-1,2,3-triazol-1-yl)methyl)cyclohexane carboxylic acid]: the IC50 turned out to be 0.0814 µM.
As for `Cc1cc(Nc2cc(C(F)(F)F)ccn2)nc(-c2cn(C3CCC(C(=O)O)c4ccccc43)nn2)c1` (stereo not shown) [Example 3.19, 4-[4-(4-methyl-6-{[4-(trifluoromethyl)pyridin-2-yl]amino}pyridin-2-yl)-1H-1,2,3-triazol-1-yl]-1,2,3,4-tetrahydronaphthalene-1-carboxylic acid], the figure is 0.016 µM.
With `CCC(O)C(O)Cn1cc(-c2cc(C)cc(Nc3cc(C(F)(F)F)ccn3)n2)nn1` (stereo not shown) [Example 10.7, 1,4,5-trideoxy-1-[4-(4-methyl-6-{[4-(trifluoromethyl)pyridin-2-yl]amino}pyridin-2-yl)-1H-1,2,3-triazol-1-yl]pentitol], the IC50 is 0.0304 µM.
As to `Cc1cc(Nc2cc(C(F)(F)F)ccn2)nc(-c2cn(C3CCCCC(O)C3O)nn2)c1` (single isomer, unassigned) [Example 10.4, 3-[4-(4-methyl-6-{[4-(trifluoromethyl)pyridin-2-yl]amino}pyridin-2-yl)-1H-1,2,3-triazol-1-yl]cycloheptane-1,2-diol], the IC50 turned out to be 0.0033 µM.
Consider `Cc1cc(Nc2cc(C(F)(F)F)ccn2)nc(-c2cn(C3CCC(C(N)=O)c4ccccc43)nn2)c1` (stereo not shown) [Example 1.11, 4-[4-(4-methyl-6-{[4-(trifluoromethyl)pyridin-2-yl]amino}pyridin-2-yl)-1H-1,2,3-triazol-1-yl]-1,2,3,4-tetrahydronaphthalene-1-carboxamide], for which the IC50 was found to be 0.0203 µM.
In the case of `C/C=C/Cn1cc(-c2cc(C)cc(Nc3cc(C(F)(F)F)ccn3)n2)nn1` [Example 5.38, 6-{1-[(2E)-but-2-en-1-yl]-1H-1,2,3-triazol-4-yl}-4-methyl-N-[4-(trifluoromethyl)pyridin-2-yl]pyridin-2-amine], the IC50 is 0.0178 µM.
As for `Cc1cc(Nc2nccc(C(F)(F)F)n2)cc(-c2cn(C[C@H](O)CC#N)nn2)c1` [Example 5.98, (3R)-3-hydroxy-4-[4-(3-methyl-5-{[4-(trifluoromethyl)pyrimidin-2-yl]amino}phenyl)-1H-1,2,3-triazol-1-yl]butanenitrile], the figure is 0.02 µM; as for `Cc1cc(Nc2nccc(C(F)F)n2)cc(-c2cn(CC3OC(=O)NC34CC4)nn2)c1` (single isomer, unassigned) [Example 7.18, 7-((4-(3-((4-(difluoromethyl)pyrimidin-2-yl)amino)-5-methylphenyl)-1H-1,2,3-triazol-1-yl)methyl)-6-oxa-4-azaspiro[2.4]heptan-5-one], 0.0117 µM; as for `COc1ccnc(Nc2cc(C)cc(-c3cn(CC(C)(O)C(C)(C)O)nn3)c2)n1` (stereo not shown) [Example 21.12, 1-(4-{3-[(4-methoxypyrimidin-2-yl)amino]-5-methylphenyl}-1H-1,2,3-triazol-1-yl)-2,3-dimethylbutane-2,3-diol], 0.0283 µM.
Turning to `Cc1cc(Nc2cc(C(F)(F)F)ccn2)nc(-c2cn(C(C)C(=O)N3CCc4[nH]c5c(Cl)cccc5c4C3)nn2)c1` (stereo not shown) [Example 1.41, 6-{1-[2-(6-chloro-1,3,4,5-tetrahydro-2H-pyrido[4,3-b]indol-2-yl)-1-methyl-2-oxoethyl]-1H-1,2,3-triazol-4-yl}-4-methyl-N-[4-(trifluoromethyl)pyridin-2-yl]pyridin-2-amine], the IC50 was determined as 0.131 µM.

The values above are taken from patent US9586931B2 (Merck Sharp & Dohme Corp., priority 2012, dated 2017).
